Results published in patent US20240101540A1, “TARGETED PROTEIN DEGRADATION OF PARP14 FOR USE IN THERAPY” (Ribon Therapeutics, Inc., priority 2022, published 2024).
Structures can show the parent of a compound that is named as a salt.

Target: T1, catalytic domain of human PARP14 (residues 1611 to 1801) with NanoLuc tag (Homo sapiens, UniProt Q460N5)
T1 construct: expressed in transfected cells; host or cells: HEK-293T cells (ATCC), pcDNA3.1(-) vector
T1 sequence (Q460N5 1611-1801): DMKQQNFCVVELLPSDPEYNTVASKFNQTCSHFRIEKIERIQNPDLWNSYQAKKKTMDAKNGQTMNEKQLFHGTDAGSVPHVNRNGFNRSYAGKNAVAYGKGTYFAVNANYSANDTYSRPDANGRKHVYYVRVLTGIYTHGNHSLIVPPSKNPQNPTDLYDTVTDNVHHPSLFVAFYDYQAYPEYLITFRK
Assay: NanoLuc assay for the degradation of PARP14 (NanoLuc-tagged PARP14 overexpressed in HEK-293T cells, 2 hours)
Assay type: cell-based
Conditions: Assay A (Example A): NanoLuc-tagged PARP14 degradation in HEK-293T cells, read-out: DC50
Protocol: The insert also contained a NanoLuc tag on the N terminus of the PARP14 protein.
Degradation of PARP14 protein was assessed using measurement of the NanoLuc tag as proxy for the PARP14 protein. […] Plasmid DNA was diluted in empty vector DNA then added to 1.163 mL of phenol red free OptiMEM (Thermo Fisher). Plasmid DNA concentrations used in each assay described in Table 1. The plasmid DNA was mixed with 78.5 μL of Fugene HD (Promega) and allowed to incubate 5 minutes.
The transfection was incubated for 24 hrs at 37 degrees in an incubator supplemented with 5% CO2. The cells were then trypsinized and brought up in phenol red free OptiMEM media. […] 40 nL of a dose response curve diluted in DMSO of each test compound was added to the cell plate using a Mosquito (TTP Labtech) and the plate was incubated at 37° C. for 2 hours. Assay plate was brought to room temperature then 20 μL per well of NanoGlo (Promega) was added to the plate. Luminescence was measured on an Envision (Perkin Elmer).
The average DMSO was calculated from 32 wells containing 0.1% DMSO only in columns 12 and 24 of the assay plate. The % of DMSO values were calculated as described below: […]
The % of DMSO values were plotted as a function of compound concentration and the following 4-parameter fit was applied to derive the DC50 values:
where top, bottom, and Hill Coefficient are allowed to float. Y is the % of DMSO and X is the compound concentration
DC50 data for the Example compounds is provided below in Table 2 (“+” is <0.1 μM; “++” is ≥0.1 μM and <1 μM; and “+++” is ≥1 μM).

Row | DC50 | SMILES
1 | < 100 nM | O=C(CN1CCC(COc2cc(F)c3c(=O)[nH]c(CSC4CCOCC4)nc3c2)CC1)NCCOCCCNc1cccc2c1C(=O)N(C1CCC(=O)NC1=O)C2=O (centres unmarked) [Example 13, N-(2-(3-((2-(2,6-dioxopiperidin-3-yl)-1,3-dioxoisoindolin-4-yl)amino)propoxy)ethyl)-2-(4-(((5-fluoro-4-oxo-2-(((tetrahydro-2H-pyran-4-yl)thio)methyl)-3,4-dihydroquinazolin-7-yl)oxy)methyl)piperidin-1-yl)acetamide]
2 | < 100 nM | O=C1CCC(N2C(=O)c3ccc(NCC(=O)N4CCC(COc5cc(F)c6c(=O)[nH]c(CSC7CCOCC7)nc6c5)CC4)cc3C2=O)C(=O)N1 (centres unmarked) [Example 14, 2-(2,6-dioxopiperidin-3-yl)-5-((2-(4-(((5-fluoro-4-oxo-2-(((tetrahydro-2H-pyran-4-yl)thio)methyl)-3,4-dihydroquinazolin-7-yl)oxy)methyl)piperidin-1-yl)-2-oxoethyl)amino)isoindoline-1,3-dione]
3 | < 100 nM | O=C1CCC(N2C(=O)c3ccc(N4CCN(CC5CCN(C(=O)CN6CCC(COc7cc(F)c8c(=O)[nH]c(CSC9CCOCC9)nc8c7)CC6)CC5)CC4)cc3C2=O)C(=O)N1 (centres unmarked) [Example 15, 2-(2,6-dioxopiperidin-3-yl)-5-(4-((1-(2-(4-(((5-fluoro-4-oxo-2-(((tetrahydro-2H-pyran-4-yl)thio)methyl)-3,4-dihydroquinazolin-7-yl)oxy)methyl)piperidin-1-yl)acetyl)piperidin-4-yl)methyl)piperazin-1-yl)isoindoline-1,3-dione formate]
4 | < 100 nM | O=C1CCC(Nc2ccc(C(=O)N3CCC(COc4cc(F)c5c(=O)[nH]c(CSC6CCOCC6)nc5c4)CC3)cc2)C(=O)N1 (centres unmarked) [Example 16, 3-((4-(4-(((5-fluoro-4-oxo-2-(((tetrahydro-2H-pyran-4-yl)thio)methyl)-3,4-dihydroquinazolin-7-yl)oxy)methyl)piperidine-1-carbonyl)phenyl)amino)piperidine-2,6-dione]
5 | < 100 nM | O=C1CCC(N2Cc3c(cccc3N3CCN(CC4CCN(C(=O)CN5CCC(COc6cc(F)c7c(=O)[nH]c(CSC8CCOCC8)nc7c6)CC5)CC4)CC3)C2=O)C(=O)N1 (centres unmarked) [Example 17, 3-(4-(4-((1-(2-(4-(((5-fluoro-4-oxo-2-(((tetrahydro-2H-pyran-4-yl)thio)methyl)-3,4-dihydroquinazolin-7-yl)oxy)methyl)piperidin-1-yl)acetyl)piperidin-4-yl)methyl)piperazin-1-yl)-1-oxoisoindolin-2-yl)piperidine-2,6-dione]
6 | < 100 nM | O=C1CCC(Nc2ccc(C3CCN(CC4CCN(C(=O)CN5CCC(COc6cc(F)c7c(=O)[nH]c(CSC8CCOCC8)nc7c6)CC5)CC4)CC3)cc2)C(=O)N1 (centres unmarked) [Example 18, 3-((4-(1-((1-(2-(4-(((5-fluoro-4-oxo-2-(((tetrahydro-2H-pyran-4-yl)thio)methyl)-3,4-dihydroquinazolin-7-yl)oxy)methyl)piperidin-1-yl)acetyl)piperidin-4-yl)methyl)piperidin-4-yl)phenyl)amino)piperidine-2,6-dione]
7 | < 100 nM | O=C1CCN(c2ccc(C3CCN(CC4CCN(C(=O)CN5CCC(COc6cc(F)c7c(=O)[nH]c(CSC8CCOCC8)nc7c6)CC5)CC4)CC3)cc2)C(=O)N1 [Example 19, 1-(4-(1-((1-(2-(4-(((5-fluoro-4-oxo-2-(((tetrahydro-2H-pyran-4-yl)thio)methyl)-3,4-dihydroquinazolin-7-yl)oxy)methyl)piperidin-1-yl)acetyl)piperidin-4-yl)methyl)piperidin-4-yl)phenyl)dihydropyrimidine-2,4(1H,3H)-dione]
8 | < 100 nM | O=C1CCC(N2C(=O)c3cccc(N4CCC(CN5CCC(C(=O)N6CCC(COc7cc(F)c8c(=O)[nH]c(CSC9CCOCC9)nc8c7)CC6)CC5)CC4)c3C2=O)C(=O)N1 (centres unmarked) [Example 20, 2-(2,6-dioxopiperidin-3-yl)-4-(4-((4-(4-(((5-fluoro-4-oxo-2-(((tetrahydro-2H-pyran-4-yl)thio)methyl)-3,4-dihydroquinazolin-7-yl)oxy)methyl)piperidine-1-carbonyl)piperidin-1-yl)methyl)piperidin-1-yl)isoindoline-1,3-dione]
9 | < 100 nM | O=C1CCC(N2C(=O)c3cccc(N4CCN(CC5CCN(C(=O)CN6CCC(COc7cc(F)c8c(=O)[nH]c(CSC9CCOCC9)nc8c7)CC6)CC5)CC4)c3C2=O)C(=O)N1 (centres unmarked) [Example 21, 2-(2,6-dioxopiperidin-3-yl)-4-(4-((1-(2-(4-(((5-fluoro-4-oxo-2-(((tetrahydro-2H-pyran-4-yl)thio)methyl)-3,4-dihydroquinazolin-7-yl)oxy)methyl)piperidin-1-yl)acetyl)piperidin-4-yl)methyl)piperazin-1-yl)isoindoline-1,3-dione]
10 | < 100 nM | O=C1CCC(N2C(=O)c3cccc(NCCOCC(=O)N4CCC(COc5cc(F)c6c(=O)[nH]c(CSC7CCOCC7)nc6c5)CC4)c3C2=O)C(=O)N1 (centres unmarked) [Example 22, 2-(2,6-dioxopiperidin-3-yl)-4-((2-(2-(4-(((5-fluoro-4-oxo-2-(((tetrahydro-2H-pyran-4-yl)thio)methyl)-3,4-dihydroquinazolin-7-yl)oxy)methyl)piperidin-1-yl)-2-oxoethoxy)ethyl)amino)isoindoline-1,3-dione]
11 | < 100 nM | O=C1CCC(N2C(=O)c3ccc(N4CCC(COc5cc(F)c6c(=O)[nH]c(CSC7CCOCC7)nc6c5)CC4)cc3C2=O)C(=O)N1 (centres unmarked) [Example 23, 2-(2,6-dioxopiperidin-3-yl)-5-(4-(((5-fluoro-4-oxo-2-(((tetrahydro-2H-pyran-4-yl)thio)methyl)-3,4-dihydroquinazolin-7-yl)oxy)methyl)piperidin-1-yl)isoindoline-1,3-dione]
12 | < 100 nM | O=C1CCC(N2C(=O)c3cccc(N4CCC(COc5cc(F)c6c(=O)[nH]c(CSC7CCOCC7)nc6c5)CC4)c3C2=O)C(=O)N1 (centres unmarked) [Example 24, 2-(2,6-dioxopiperidin-3-yl)-4-(4-(((5-fluoro-4-oxo-2-(((tetrahydro-2H-pyran-4-yl)thio)methyl)-3,4-dihydroquinazolin-7-yl)oxy)methyl)piperidin-1-yl)isoindoline-1,3-dione]
13 | < 100 nM | O=C1CCC(N2C(=O)c3ccc(NC(=O)CN4CCC(COc5cc(F)c6c(=O)[nH]c(CSC7CCOCC7)nc6c5)CC4)cc3C2=O)C(=O)N1 (centres unmarked) [Example 25, N-(2-(2,6-dioxopiperidin-3-yl)-1,3-dioxoisoindolin-5-yl)-2-(4-(((5-fluoro-4-oxo-2-(((tetrahydro-2H-pyran-4-yl)thio)methyl)-3,4-dihydroquinazolin-7-yl)oxy)methyl)piperidin-1-yl)acetamide]
14 | < 100 nM | O=C1CCC(N2C(=O)c3cccc(NC(=O)CN4CCC(COc5cc(F)c6c(=O)[nH]c(CSC7CCOCC7)nc6c5)CC4)c3C2=O)C(=O)N1 (centres unmarked) [Example 26, N-(2-(2,6-dioxopiperidin-3-yl)-1,3-dioxoisoindolin-4-yl)-2-(4-(((5-fluoro-4-oxo-2-(((tetrahydro-2H-pyran-4-yl)thio)methyl)-3,4-dihydroquinazolin-7-yl)oxy)methyl)piperidin-1-yl)acetamide]
15 | < 100 nM | O=C1CCC(N2C(=O)c3ccc(C#CCN4CCC(COc5cc(F)c6c(=O)[nH]c(CSC7CCOCC7)nc6c5)CC4)cc3C2=O)C(=O)N1 (centres unmarked) [Example 27, 2-(2,6-dioxopiperidin-3-yl)-5-(3-(4-(((5-fluoro-4-oxo-2-(((tetrahydro-2H-pyran-4-yl)thio)methyl)-3,4-dihydroquinazolin-7-yl)oxy)methyl)piperidin-1-yl)prop-1-yn-1-yl)isoindoline-1,3-dione]
16 | < 100 nM | O=C1CCC(N2C(=O)c3cccc(C#CCN4CCC(COc5cc(F)c6c(=O)[nH]c(CSC7CCOCC7)nc6c5)CC4)c3C2=O)C(=O)N1 (centres unmarked) [Example 28, 2-(2,6-dioxopiperidin-3-yl)-4-(3-(4-(((5-fluoro-4-oxo-2-(((tetrahydro-2H-pyran-4-yl)thio)methyl)-3,4-dihydroquinazolin-7-yl)oxy)methyl)piperidin-1-yl)prop-1-yn-1-yl)isoindoline-1,3-dione]
17 | < 100 nM | O=C1CCC(N2Cc3cc(C#CCN4CCC(COc5cc(F)c6c(=O)[nH]c(CSC7CCOCC7)nc6c5)CC4)ccc3C2=O)C(=O)N1 (centres unmarked) [Example 29, 3-(5-(3-(4-(((5-fluoro-4-oxo-2-(((tetrahydro-2H-pyran-4-yl)thio)methyl)-3,4-dihydroquinazolin-7-yl)oxy)methyl)piperidin-1-yl)prop-1-yn-1-yl)-1-oxoisoindolin-2-yl)piperidine-2,6-dione]
